How the values were obtained:
β-galactosidase [1] = target: T1, β-galactosidase (Escherichia coli, UniProt P00722); format: biochemical; details: 30 minutes, 250 mM sodium phosphate buffer pH 7.4, excitation 550 nm
Procedure: Absorption spectrum variation and fluorescence spectrum variation (excitation wavelength: 550 nm) caused by enzyme reaction of β-galactosidase and the enzyme-specific retainable fluorescent compound of the present invention 2-CHF2-HMDER-βGal, 4-CHF2-HMDER-βGal, or 4-CH2F-HMDER-βGal for 30 minutes was measured in the presence of a 250 mM sodium phosphate buffer solution (pH: 7.4). Measurement was performed using a Shimadzu UV-2450 (manufactured by Shimadzu Corporation) and a Hitachi F-7000 (manufactured by Hitachi, Ltd.).

β-galactosidase [2] = target: T1, β-galactosidase; format: biochemical; details: 2.5 μM compound, 0.5 mg/mL BSA; for fluorescence at the band of BSA after SDS-PAGE: 5 U β-galactosidase, excitation 488 nm
Procedure: (1) 2.5 μM 4-CH2F-HMDER-βGal and 0.5 mg/mL BSA, (2) 2.5 μM 4-CH2F-HMDER-βGal, 0.5 mg/mL BSA, and 5 U of β-galactosidase, (3) 2.5 μM 4-CHF2-HMDER-βGal, 0.5 mg/mL BSA, and 5 U of β-galactosidase, (4) 2.5 μM 2-CHF2-HMDER-βGal, 0.5 mg/mL BSA, and 5 U of β-galactosidase, and (5) 2.5 μM HMDER-βGal, 0.5 mg/mL BSA, and 5 U of β-galactosidase were each reacted in aqueous solution (500 mM sodium phosphate buffer solution having a pH of 7.4), after which the reaction products were subjected to SDS-PAGE (running gel: 10%, stacking gel: 4%, electrophoresis voltage: 200 V). […] After observation, each gel was Coomassie stained and the position of the BSA on the gel was confirmed (FIG. 4(b)).

HEK-lacZ cell lysate = target: T2, HEK-lacZ cell lysate (Escherichia coli, UniProt P00722); format: biochemical; details: 2.5 μM compound; for fluorescence labeling of intracellular protein after SDS-PAGE: 1.5 mg/mL HEK-lacZ cell lysate, 30 minutes 37° C.
T2 construct: expressed in transfected cells; host or cells: HEK cells (HEK-lacZ), used as cell lysate
From the text: HEK cells (HEK-lacZ cells) expressing β-galactosidase and HEK cells were used.

HEK-lacZ cells [3] = experiment: Detection of β-galactosidase activity in living cells using flow cytometry; format: cell-based; details: mixture of HEK-LacZ and HEK cells, 1 μM, 30 minutes, excitation 488 nm
Procedure: These cells were analyzed by excitation light having a wavelength of 488 nm using an Accuri C6 (Accuri Cytometers, Inc.) flow cytometer.

[4] = test system: fruit fly (esg-lacZ) expressing β-galactosidase in the midgut; details: midgut fixed with 4% PFA, reacted 10 minutes
Procedure: A fruit fly (esg-lacZ) expressing β-galactosidase in the midgut thereof was dissected and fixed with 4% FPA. Then, 4-CH2F-HMDER-βGal was added and reacted for 10 minutes.

[5] = test system: ovarian cancer cells SHIN3; details: intraperitoneal administration, observed 1 hour later, SHIN3 cancer model mouse
Procedure: A cancer model mouse inoculated with ovarian cancer cells SHIN3 was produced. Acidic β-galactosidase activity is known to be elevated in ovarian cancer cells. 4-CH2F-HMDER-βGal was intraperitoneally administered to the cancer model mouse, and fluorescence was observed 1 hour later using a Maestro in-vivo imaging system (CRi). The observation conditions were as follows: excitation light: 490 to 530 nm, observation wavelength: 550 to 800 nm.

[6] = test system: wing primordia (wing discs) with arm-lacZ / His2Av-mRFP1 cells; details: 10 μM, 30 minutes, non-fixed wing primordia
Procedure: A male His2Av-mRFP1, FRT80B/TM6B fruit fly (Drosophila melanogaster) and a female hs-flp; arm-lacZ FRT80B fruit fly were crossed, a heat shock at a temperature of 37° C. for 1 hour was applied to the offspring at the first-instar larval stage 30 hours after hatching thereof, and cells having the following three genotypes were expressed in the wing primordia (wing discs): (1) cells expressing only β-galactosidase (arm-lacZ), (2) cells expressing only red fluorescent protein (mRFP1) (His2Av-mRFP1), and (3) cells expressing both β-galactosidase and mRFP1 (arm-lacZ/His2Av-mRFP1). […] The observation conditions were as follows: (4-CH2F-HMDER-βGal) excitation light: 514 nm, observation wavelength: 525 to 585 nm, (mRFP1) excitation light: 594 nm, emission wavelength: 610 to 700 nm, 63× magnification.

[7] = test system: fruit fly fat body overexpressing β-galactosidase; details: 10 μM, fat bodies of third-instar fly
Procedure: In order to analyze cells in fruit fly (Drosophila melanogaster) fat body, overexpression of β-galactosidase was induced by crossing UAS-lacZ with hs-flp^122; Actin>y>Gal4 using a flip-out technique. To perform living-cell fluorescence imaging, fat bodies were dissected from a third-instar (final instar) fly and incubated for 29 minutes in a culture medium including 10 μM 4-CH2F-HMDER-βGal and 16 μM Hoechst 33342 (cell nuclear stain), and the fat bodies were washed with PBS and immersed in 80% glycerol. To perform immunostaining, the dissected adipocytes were immersed for 20 minutes in PBS containing 4% paraformaldehyde (PFA) and fixed. […] The observation conditions were as follows: (Hoeschst 33342) excitation light: 405 nm, observation wavelength: 415 to 490 nm, (4-C2F-HMDER-βGal) excitation light: 514 nm, observation wavelength: 525 to 600 nm, (Alexa 647 modified secondary antibodies) excitation light: 633 nm, observation wavelength: 640 to 700 nm, 40× magnification.

[8] = test system: Wing primordia (wing discs) of a (en-lacZ) fruit fly expressing β-galactosidase; experiment: Fluorescence imaging of non-fixed biological tissue having β-galactosidase activity; details: 20 μM, 30 minutes, room temperature
From the text: The observation conditions were as follows: Ar: 40% to 25%, excitation light: 314 nm, emission wavelength: 535 to 595 nm (HyD2), 20× magnification.

HEK-lacZ cells [9] = experiment: Fluorescence imaging of living cells expressing β-galactosidase (confocal microscope); details: for fluorescence imaging of β-galactosidase activity of individual cells: mixture of HEK-LacZ cells and HEK cells, without washing
Procedure: HEK cells, HEK-lacZ cells, and a mixture thereof were incubated (at 37° C. in the presence of 5% CO2) for 30 minutes together with 1 μM 4-CH2F-HMDER-βGal or HMDER-βGal, after which a fluorescence image and a differential interference image (DIC) of the cells were acquired using a confocal microscope, before and after washing twice with culture medium. […] A TCS SP5 X (manufactured by Leica) equipped with white light laser and an HCX PL APO CS 40×/1.25 objective lens (manufactured by Leica) was used as the confocal microscope, which was controlled by LAS AF software. The observation conditions were as follows: white light laser (WLL): 80% to 25%, excitation wavelength: 525 nm, observation wavelength: 535 to 595 nm, gain: 800 V (PMT1)/350 V (Scan-DIC), offset: 0%, pinhole: 67.88 μM (Airy disk).

T1 sequence (P00722 2-1024): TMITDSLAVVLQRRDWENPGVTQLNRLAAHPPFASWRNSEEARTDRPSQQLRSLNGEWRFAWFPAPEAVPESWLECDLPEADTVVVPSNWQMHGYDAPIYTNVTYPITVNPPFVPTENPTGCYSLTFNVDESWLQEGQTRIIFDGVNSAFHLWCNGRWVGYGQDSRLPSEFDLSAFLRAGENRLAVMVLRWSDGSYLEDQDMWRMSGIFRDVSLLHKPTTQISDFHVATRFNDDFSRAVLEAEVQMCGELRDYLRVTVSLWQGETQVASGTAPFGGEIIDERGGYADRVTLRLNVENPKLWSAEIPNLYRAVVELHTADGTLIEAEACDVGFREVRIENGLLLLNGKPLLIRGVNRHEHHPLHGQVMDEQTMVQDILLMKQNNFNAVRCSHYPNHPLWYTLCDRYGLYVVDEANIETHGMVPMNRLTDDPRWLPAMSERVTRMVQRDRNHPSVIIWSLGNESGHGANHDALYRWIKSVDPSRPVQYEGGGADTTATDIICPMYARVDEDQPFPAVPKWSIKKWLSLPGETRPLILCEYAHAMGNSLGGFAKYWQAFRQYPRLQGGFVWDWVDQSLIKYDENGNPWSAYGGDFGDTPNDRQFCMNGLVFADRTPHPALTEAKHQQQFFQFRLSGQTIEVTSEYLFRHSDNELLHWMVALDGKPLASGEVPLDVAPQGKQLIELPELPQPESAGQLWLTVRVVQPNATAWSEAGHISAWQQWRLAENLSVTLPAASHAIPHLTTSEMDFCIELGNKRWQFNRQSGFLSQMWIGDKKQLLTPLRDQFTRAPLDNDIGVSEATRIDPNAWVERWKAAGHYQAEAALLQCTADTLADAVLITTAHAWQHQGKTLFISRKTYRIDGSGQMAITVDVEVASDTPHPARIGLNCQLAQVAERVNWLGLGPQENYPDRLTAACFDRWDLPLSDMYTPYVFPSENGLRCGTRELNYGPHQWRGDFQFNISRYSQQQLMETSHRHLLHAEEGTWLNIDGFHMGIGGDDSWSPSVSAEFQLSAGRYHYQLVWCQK
T2 sequence (P00722 whole entry): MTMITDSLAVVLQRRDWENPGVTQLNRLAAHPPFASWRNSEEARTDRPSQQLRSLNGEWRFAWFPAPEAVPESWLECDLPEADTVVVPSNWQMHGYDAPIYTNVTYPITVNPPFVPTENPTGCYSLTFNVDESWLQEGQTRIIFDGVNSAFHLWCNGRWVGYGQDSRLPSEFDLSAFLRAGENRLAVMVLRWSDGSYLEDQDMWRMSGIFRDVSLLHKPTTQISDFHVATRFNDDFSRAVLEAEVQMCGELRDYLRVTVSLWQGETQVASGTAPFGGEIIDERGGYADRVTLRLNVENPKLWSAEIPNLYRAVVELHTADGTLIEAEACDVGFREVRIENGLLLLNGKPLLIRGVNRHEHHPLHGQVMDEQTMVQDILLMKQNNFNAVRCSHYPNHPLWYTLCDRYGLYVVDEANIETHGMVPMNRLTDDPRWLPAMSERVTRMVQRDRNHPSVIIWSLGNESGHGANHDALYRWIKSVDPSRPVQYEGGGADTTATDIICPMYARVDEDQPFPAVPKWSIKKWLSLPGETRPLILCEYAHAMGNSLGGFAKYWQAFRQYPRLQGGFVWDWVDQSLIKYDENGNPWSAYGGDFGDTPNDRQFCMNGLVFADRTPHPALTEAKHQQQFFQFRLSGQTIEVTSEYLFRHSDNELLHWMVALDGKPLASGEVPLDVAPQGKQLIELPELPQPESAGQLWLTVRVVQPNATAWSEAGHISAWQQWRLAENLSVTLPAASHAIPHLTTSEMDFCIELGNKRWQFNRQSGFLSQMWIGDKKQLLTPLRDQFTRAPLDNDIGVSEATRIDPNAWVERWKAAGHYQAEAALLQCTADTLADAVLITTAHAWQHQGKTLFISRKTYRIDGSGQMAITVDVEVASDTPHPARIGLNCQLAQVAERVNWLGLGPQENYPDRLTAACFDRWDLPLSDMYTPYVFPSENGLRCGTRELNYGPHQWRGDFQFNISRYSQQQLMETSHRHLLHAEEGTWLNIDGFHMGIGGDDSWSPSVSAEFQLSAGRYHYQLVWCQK

| SMILES | fluorescence emission as a result of enzyme reaction with β-galactosidase (β-galactosidase [1]) | fluorescence at the band of BSA after SDS-PAGE (β-galactosidase [2]) | fluorescence labeling of intracellular protein after SDS-PAGE (HEK-lacZ cell lysate) | fluorescence at the band of BSA after SDS-PAGE, sample not including β-galactosidase (β-galactosidase [2]; no β-galactosidase (lane 1)) | fluorescence labeling of intracellular protein after SDS-PAGE, HEK cells not expressing β-galactosidase (HEK-lacZ cell lysate; 1.5 mg/mL HEK cell lysate (lane 1)) | differentiation of HEK-LacZ cells and HEK cells by flow cytometry (HEK-lacZ cells [3]) | single-cell fluorescence imaging in fixed tissue [4] | cancer-site-selective fluorescence imaging [5] | visualization of mosaic pattern of β-galactosidase-positive cells [6] | fluorescence imaging of β-galactosidase-expressing cells in fat body [7] | selective fluorescence imaging of the region having β-galactosidase activity [8] | fluorescence of HEK-LacZ cells (HEK-lacZ cells [9]; 1 μM, 30 minutes, observed without washing) | change in fluorescence intensity after washing (retention in cells) (HEK-lacZ cells [9]; 1 μM, 30 minutes, washed twice with culture medium) | fluorescence imaging of fixed samples (HEK-lacZ cells [9]; cells fixed with 4% PFA for 10 minutes after incubation) | fluorescence imaging of β-galactosidase activity of individual cells (HEK-lacZ cells [9]; 1 μM, 30 minutes) |
| --- | --- | --- | --- | --- | --- | --- | --- | --- | --- | --- | --- | --- | --- | --- | --- |
| CCN(CC)c1ccc2c(c1)Oc1cc(O[C@@H]3O[C@H](CO)[C@H](O)[C@H](O)[C@H]3O)c(C(F)F)cc1C21OCc2ccccc21 (stereo partly drawn) [2-CHF2-HMDER-βGal, (2S,3R,4S,5R,6R)-2-((6′-(diethylamino)-2′-(difluoromethyl)-3H-spiro[isobenzofuran-1,9′-xanthen]-3′-yl)oxy)-6-(hydroxymethyl)tetrahydro-2H-pyran-3,4,5-triol] | emitted fluorescence | Fluorescence was observed at the band of BSA | Fluorescence labeling to the intracellular protein was confirmed |  |  |  |  |  |  |  |  |  |  |  |  |
| CCN(CC)c1ccc2c(c1)Oc1c(ccc(O[C@@H]3O[C@H](CO)[C@H](O)[C@H](O)[C@H]3O)c1CF)C21OCc2ccccc21 (some centres unmarked) [4-CH2F-HMDER-βGal] | emitted fluorescence | Fluorescence was observed at the band of BSA | Fluorescence labeling to the intracellular protein was confirmed | Fluorescence was not observed | Fluorescence was not confirmed | possible to clearly differentiate between these cell types | it was possible to confirm a cell emitting fluorescence in a tissue | can be applied in cancer-site-selective fluorescence imaging | the mosaic pattern of the cells having the three genotypes described above was clearly visualized | it is possible to perform fluorescent imaging of cells of interest in which β-galactosidase is expressed | selective fluorescence imaging of the region of interest (posterior section) having β-galactosidase activity was possible | exhibited clear fluorescence | almost no change in fluorescence intensity | Fluorescence imaging with the fixed samples was also possible | a definite difference in fluorescence level among individual cells was observed |
| CCN(CC)c1ccc2c(c1)Oc1c(ccc(O[C@@H]3O[C@H](CO)[C@H](O)[C@H](O)[C@H]3O)c1C(F)F)C21OCc2ccccc21 (stereo partly drawn) [4-CHF2-HMDER-βGal, (2S,3R,4S,5R,6R)-2-((3′-(diethyiamino)-5′-(difluoromethyl)-3H-spiro[isobenzofuran-1,9′-xanthen]-6′-yl)-oxy)-6-(hydroxymethyl)tetrahydro-2H-pyran-3,4,5-triol] | emitted fluorescence | Fluorescence was observed at the band of BSA | Fluorescence labeling to the intracellular protein was confirmed |  |  |  |  |  |  |  |  |  |  |  |  |
| CCN(CC)c1ccc2c(c1)Oc1cc(OC3OC(CO)C(O)C(O)C3O)ccc1C21OCc2ccccc21 (centres unmarked) [HMDER-βGal, reference compound] |  | Fluorescence was not observed | Fluorescence was not confirmed |  |  | the cells could not be differentiated |  |  |  |  | the region of interest having β-galactosidase activity could not be discerned |  |  |  | fluorescence imaging of β-galactosidase activity of individual eels was not possible |

From patent publication US9981934B2, “Enzyme-specific fluorescent compound capable of being retained in cells” (The University of Tokyo, priority 2014, dated 2018)
